Values quoted from earlier work in US11786452B2, “Method for dyeing keratinous material” (Henkel AG & Co. KGaA, priority 2019, dated 2023).

Conditions: 25° C.

Question: With CCN(Cc1cccc(S(=O)(=O)[O-])c1)c1ccc(C(=C2C=CC(=[N+](CC)Cc3cccc(S(=O)(=O)[O-])c3)C=C2)c2ccccc2S(=O)(=O)[O-])cc1.[Na+].[Na+] [Acid Blue 9] as the molecule, how does the solubility in water read?
Answer: The solubility in water was “more than 20 % by weight”.

Question: Which solubility in water does the source give for O=S(=O)([O-])c1ccc(N=Nc2c(O)ccc3ccccc23)cc1.[Na+] [Acid Orange 7, sodium salt of 4-[(2-hydroxy-1-naphthyl)azo]benzene sulphonate] here?
Answer: Its solubility in water is “more than 7 g/L”.

Question: With Nc1cc(S(=O)(=O)[O-])cc2cc(S(=O)(=O)[O-])c(N=Nc3ccccc3)c(O)c12.[Na+].[Na+] [Acid Red 33, diantrium salt of 5-amino-4-hydroxy-3-(phenylazo)-naphthalene-2,7-disulphonate] as the molecule, how does the solubility in water read?
Answer: The solubility in water was 2500 µg/mL.

Question: Which solubility in water does the source give for O=C([O-])c1c(Cl)c(Cl)c(Cl)c(Cl)c1-c1c2c(Br)cc(=O)c(Br)c-2oc2c(Br)c(O)cc(Br)c12.O=C([O-])c1c(Cl)c(Cl)c(Cl)c(Cl)c1-c1c2c(Br)cc(=O)c(Br)c-2oc2c(Br)c(O)cc(Br)c12.[Na+].[Na+] [Acid Red 92, disodium salt of 3,4,5,6-tetrachloro-2-(1,4,5,8-tetrabromo-6-hydroxy-3-oxoxanthen-9-yl)benzoic acid] here?
Answer: Its solubility in water is “greater than 10 g/L”.

Question: Which “solubility in water” value does the source give for O=C([O-])C1=NN(c2ccc(S(=O)(=O)[O-])cc2)C(=O)C1N=Nc1ccc(S(=O)(=O)[O-])cc1.[Na+].[Na+].[Na+] (centres unmarked) [Acid Yellow 23, trisodium salt of 4,5-dihydro-5-oxo-1-(4-sulfophenyl)-4-((4-sulfophenyl)azo)-1H-pyrazole-3-carboxylic acid] here?
Answer: Its value is “highly soluble”.
